Data reported in US8809372B2, “Pyridine derivatives” (Endo Pharmaceuticals, Inc., priority 2011, dated 2014).
pIC50: −log10 of the molar value.

What follows are compounds tested against T1, human CYP17 in H295R adrenocortical carcinoma cells (Homo sapiens, UniProt P05093) (assay: Cell-based human CYP17 inhibition assay, H295R cells). Conditions: 16 hours, read-out: CYP17 (human H295R adrenal cells).
T1 construct: H295R Adrenocortical carcinoma cells [NCI-H295A, ATCC Number CRL-2128, American Type Culture Collection; host or cells: H295R adrenocortical carcinoma cells
T1 sequence (P05093 1-508): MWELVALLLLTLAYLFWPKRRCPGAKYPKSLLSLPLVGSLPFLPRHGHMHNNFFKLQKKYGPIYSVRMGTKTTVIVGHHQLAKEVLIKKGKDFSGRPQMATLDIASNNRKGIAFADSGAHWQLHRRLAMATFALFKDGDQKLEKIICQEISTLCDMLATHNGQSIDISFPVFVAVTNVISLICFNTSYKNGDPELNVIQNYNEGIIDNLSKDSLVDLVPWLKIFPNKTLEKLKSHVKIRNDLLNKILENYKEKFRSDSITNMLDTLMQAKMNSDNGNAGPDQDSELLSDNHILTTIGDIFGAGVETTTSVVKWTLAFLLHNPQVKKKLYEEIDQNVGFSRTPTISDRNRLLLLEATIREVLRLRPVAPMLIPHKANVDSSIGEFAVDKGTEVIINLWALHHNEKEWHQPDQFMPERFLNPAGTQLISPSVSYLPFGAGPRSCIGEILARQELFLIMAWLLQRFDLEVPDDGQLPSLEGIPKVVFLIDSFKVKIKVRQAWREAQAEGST
In short: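 H295R cells or LNCaP cells stably transfected with full-length human CYP17A1 (30,000/well) incubated 16 h at 37 °C with ³H-17α-hydroxypregnenolone and compound (top 10 μM, 3-fold dilutions, up to 10 concentrations). Medium chloroform-extracted and charcoal-treated; aqueous-phase radioactivity counted by scintillation.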

Row | SMILES | pIC50
1 | COc1ccc(-c2ccc(C(C)(O)c3ccncc3)nc2)cc1 (single isomer, unassigned) [Example 3, 1-(5-(4-methoxyphenyl)-pyridin-2-yl)-1-(pyridin-4-yl)ethanol] | 5.00 to 6.70
2 | Cn1cc(-c2ccc(C(C)(O)c3ccncc3)s2)ccc1=O (stereo not drawn) [Example 15, 5-(5-(1-Hydroxy-1-(pyridin-4-yl)ethyl)thiophen-2-yl)-1-methyl-pyridin-2(1H)-one] | 6.70 to 7.30
3 | CC(O)(c1ccncc1)c1cnc(-c2ccc(F)cc2)s1 (racemic) [Example 7, 1-(2-(4-Fluorophenyl)thiazol-5-yl)-1-(pyridin-4-yl)ethanol] | 6.70 to 7.30
4 | CC(O)(c1ccncc1)c1nc(-c2ccc(F)cc2)no1 (single isomer, unassigned; (+)) [Example 36, (+)-1-(3-(4-fluoro-phenyl)-1,2,4-oxadiazol-5-yl)-1-(pyridin-4-yl)ethanol] | > 7.30
5 | CC(O)(c1ccncc1)c1ncc(-c2ccc(F)cc2)s1 (stereo not drawn) [Example 14, 1-(5-(4-Fluorophenyl)thiazol-2-yl)-1-(pyridin-4-yl)ethanol] | > 7.30
6 | COc1ccc(-c2ccc(C(C)(O)c3ccncc3)nc2)cc1 (single isomer, unassigned) [Example 2, 1-(5-(4-methoxyphenyl)-pyridin-2-yl)-1-(pyridin-4-yl)ethanol] | 6.70 to 7.30
7 | CC(O)(c1ccncc1)c1cnc(-c2ccc(F)cc2)s1 (single isomer, unassigned) [Example 9, 1-(2-(4-fluorophenyl)thiazol-5-yl)-1-(pyridin-4-yl)ethanol] | > 7.30
8 | Cn1cc(-c2ccc(C(C)(O)c3ccncc3)s2)ccc1=O (single isomer, unassigned; (-)) [Example 17, (−)-5-(5-(1-hydroxy-1-(pyridin-4-yl)ethyl)thiophen-2-yl)-1-methylpyridin-2(1H)-one] | > 7.30
9 | CC(O)(c1ccncc1)c1cnc(-c2ccc(F)cc2)s1 (single isomer, unassigned) [Example 8, 1-(2-(4-fluorophenyl)thiazol-5-yl)-1-(pyridin-4-yl)ethanol] | 5.00 to 6.70
10 | CCC(O)(c1ccncc1)c1cnc(-c2ccc(F)cc2)s1 (stereo not drawn) [Example 4, 1-(2-(4-fluorophenyl)-thiazol-5-yl)-1-(pyridin-4-yl)propan-1-ol] | 6.70 to 7.30
11 | CC(O)(c1ccncc1)c1nc(-c2ccc(F)cc2)no1 (stereo not drawn) [Example 34, 1-(3-(4-Fluorophenyl)-1,2,4-oxadiazol-5-yl)-1-(pyridin-4-yl)ethanol] | > 7.30
12 | COc1ccc(-c2ccc(C(C)(O)c3ccncc3)nc2)cc1 (racemic) [Example 1, 1-(5-(4-Methoxyphenyl)pyridin-2-yl)-1-(pyridin-4-yl)ethanol] | 6.70 to 7.30
